In assay [1] the target is T1, human α1B‐adrenoceptor (Homo sapiens, UniProt P35368).
T1 construct: expressed in transfected cells; host or cells: CHO-K1
T1 sequence (P35368 1-520): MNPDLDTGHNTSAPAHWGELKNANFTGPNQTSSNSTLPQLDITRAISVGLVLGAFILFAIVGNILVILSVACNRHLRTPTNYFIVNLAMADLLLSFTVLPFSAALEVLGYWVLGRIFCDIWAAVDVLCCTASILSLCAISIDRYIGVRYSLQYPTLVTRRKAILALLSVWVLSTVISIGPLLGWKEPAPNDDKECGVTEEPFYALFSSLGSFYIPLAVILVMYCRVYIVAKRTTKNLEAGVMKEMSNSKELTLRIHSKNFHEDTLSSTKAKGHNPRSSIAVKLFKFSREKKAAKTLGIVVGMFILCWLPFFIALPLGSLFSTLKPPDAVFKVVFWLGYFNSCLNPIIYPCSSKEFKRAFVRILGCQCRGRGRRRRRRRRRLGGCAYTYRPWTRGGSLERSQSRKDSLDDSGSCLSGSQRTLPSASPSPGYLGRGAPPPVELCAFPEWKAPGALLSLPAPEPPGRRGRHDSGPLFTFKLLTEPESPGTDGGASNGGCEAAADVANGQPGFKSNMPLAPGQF
Kind of assay: Intracellular free calcium mobilization, CHO‐α1B cells. It counts as cell-based. In general terms: Calcium flux is commonly read through the fluorescence of an indicator in the cells.

In assay [2] the target is T1, human α1B‐adrenoceptor. Kind of assay: ERK1/2‐phosphorylation (Surefire Alphascreen), CHO‐α1B cells. It counts as cell-based. (Alpha assays give light when donor and acceptor beads are brought close together.)
The subject of assay [3] is parental CHO cell line without any transfected receptors. Description: ^3H‐cAMP accumulation, parent CHO cells without transfected receptors. In kind it is cell-based, Chinese hamster. (Changes in cAMP serve as a functional read-out for many G protein-coupled receptors.)
Assay [4] shares this test system. Kind of assay: ERK1/2‐phosphorylation, parent CHO cells without transfected receptors. It counts as cell-based, Chinese hamster.
Assay [5] shares this test system. Kind of assay: Intracellular calcium mobilization, parent CHO cells without transfected receptors. In kind it is cell-based, Chinese hamster.
Assay [6] addresses T2, human α1A‐adrenoceptor (Homo sapiens, UniProt P35348).
T2 construct: expressed in transfected cells; host or cells: CHO-K1
T2 sequence (P35348 1-466): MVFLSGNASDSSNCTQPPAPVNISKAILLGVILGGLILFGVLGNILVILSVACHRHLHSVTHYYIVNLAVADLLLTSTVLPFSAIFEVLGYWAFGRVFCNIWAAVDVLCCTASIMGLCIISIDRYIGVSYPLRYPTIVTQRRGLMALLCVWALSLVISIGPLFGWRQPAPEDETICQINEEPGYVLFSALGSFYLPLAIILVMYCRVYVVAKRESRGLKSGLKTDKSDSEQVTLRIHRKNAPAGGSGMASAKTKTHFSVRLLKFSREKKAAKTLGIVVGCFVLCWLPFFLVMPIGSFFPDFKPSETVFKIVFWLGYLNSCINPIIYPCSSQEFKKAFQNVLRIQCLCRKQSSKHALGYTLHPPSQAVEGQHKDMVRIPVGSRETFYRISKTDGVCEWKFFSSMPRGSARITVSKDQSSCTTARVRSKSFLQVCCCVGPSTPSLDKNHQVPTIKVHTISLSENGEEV
Kind of assay: Intracellular free calcium mobilization, CHO‐α1A cells. In kind it is cell-based.

For assay [7], the target named is T3, human α1D‐adrenoceptor (full length) (Homo sapiens, UniProt P25100).
T3 construct: human α1D‐adrenoceptor (full length) were used; expressed in transfected cells; host or cells: CHO-K1
T3 sequence (P25100 1-572): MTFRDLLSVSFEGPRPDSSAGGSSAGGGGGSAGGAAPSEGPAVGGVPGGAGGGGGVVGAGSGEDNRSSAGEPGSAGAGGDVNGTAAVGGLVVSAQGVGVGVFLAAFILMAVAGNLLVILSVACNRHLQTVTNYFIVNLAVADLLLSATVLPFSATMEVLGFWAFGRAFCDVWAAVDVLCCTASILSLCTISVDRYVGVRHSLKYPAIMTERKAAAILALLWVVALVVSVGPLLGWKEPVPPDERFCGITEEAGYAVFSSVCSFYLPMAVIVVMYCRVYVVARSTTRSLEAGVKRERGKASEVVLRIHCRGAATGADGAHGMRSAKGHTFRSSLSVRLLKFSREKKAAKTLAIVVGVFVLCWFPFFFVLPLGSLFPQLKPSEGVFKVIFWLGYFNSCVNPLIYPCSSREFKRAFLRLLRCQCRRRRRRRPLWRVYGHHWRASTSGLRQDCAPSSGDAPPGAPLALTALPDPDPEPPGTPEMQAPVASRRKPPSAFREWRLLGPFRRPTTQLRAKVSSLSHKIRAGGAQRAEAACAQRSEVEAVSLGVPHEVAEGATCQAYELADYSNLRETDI
Description: Intracellular free calcium mobilization, CHO‐α1D cells. In kind it is cell-based.

Assay [8] concerns the target T3, human α1D‐adrenoceptor (full length). Kind of assay: ERK1/2‐phosphorylation (Surefire Alphascreen), CHO‐α1D cells. It counts as cell-based.
The subject of assay [9] is parental CHO cell line without any transfected receptors. Description: Forskolin‐stimulated cAMP accumulation, parent CHO cells without transfected receptors. It counts as cell-based, Chinese hamster.
Assay [10] concerns the target T2, human α1A‐adrenoceptor. Description: ^3H‐cAMP accumulation, CHO‐α1A cells. In kind it is cell-based. To be noted: for cAMP accumulation % forskolin: % of 10 µM forskolin response.
For assay [11], the target named is T2, human α1A‐adrenoceptor. Kind of assay: ERK1/2‐phosphorylation (Surefire Alphascreen), CHO‐α1A cells. In kind it is cell-based.
For assay [12], the target named is T2, human α1A‐adrenoceptor. Description: ^3H‐cAMP accumulation in the presence of 10 μM forskolin, CHO‐α1A cells. It counts as cell-based. To be noted: for cAMP accumulation (in presence of forskolin) Fold increase: fold increase of the forskolin response.
Assay [13] concerns the target T3, human α1D‐adrenoceptor (full length). Kind of assay: ^3H‐prazosin whole‐cell radioligand binding, CHO‐α1D cells.
Assay [14] concerns the target T1, human α1B‐adrenoceptor. Description: ^3H‐prazosin whole‐cell radioligand binding, CHO‐α1B cells.
Assay [15] addresses T2, human α1A‐adrenoceptor. Kind of assay: ^3H‐prazosin whole‐cell radioligand binding, CHO‐α1A cells.
The target of assay [16] is T3, human α1D‐adrenoceptor (full length). Description: ^3H‐cAMP accumulation in the presence of 10 μM forskolin, CHO‐α1D cells. It counts as cell-based. To be noted: CHO‐α1D cells; in presence of forskolin; log values given negative.
The target is the same in assay [17]. Kind of assay: ^3H‐cAMP accumulation, CHO‐α1D cells. In kind it is cell-based. To be noted: cAMP accumulation without forskolin.
[18] abbreviates: Intracellular calcium release Log EC50.
[19] abbreviates: ERK1/2‐phosphorylation Log EC50.

Read-outs that look alike come from different tables or passages of the source. Bounds are passed on as bounds.

Broadly, the Kd is the concentration at which binding is half-saturated. High values mean lower affinity, low ones higher affinity. By IC50 is commonly meant the concentration at which inhibition is half-maximal. Lower therefore signals inhibition by little substance.

On to `CCC1(c2cnc[nH]2)Cc2ccccc2C1` [Atipamezole], for which the “Intracellular calcium release % Ionomycin at 100 µM” value in assay [1] is on record as 18.1 ± 4.8%. Further, the “ERK1/2‐phosphorylation % PDBu” value is on record as “No response” in assay [2] and 87.1 ± 5.0% in assay [11]. Also, the “ERK1/2‐phosphorylation Log EC50” value in assay [2] (CHO‐α1B cells, for bi‐phasic responses the initial stimulatory part) is reported as “No response”. The entries for the “cAMP accumulation % forskolin” value in [3] and in [10] (CHO‐α1A cells) were “No response” and 14.5 ± 2.6%, respectively. Further, the “ERK1/2-phosphorylation % PDBu at 10μM” value in [4] is listed as 3.1 ± 1.9%. Further, the “Intracellular calcium release % ionomycin” value is listed as “No response” in assay [5], 44.5 ± 2.6% in assay [6] and “No response” in assay [7]. For the same compound, the “Log efficacy ratio KD /EC50” value in [6] came out at 0.62. The EC50 in assay [6] (CHO‐α1A cells, given as log EC50 (negative), read-out: Intracellular calcium release Log EC50 (converted)) is 0.245 µM; in assay [10] (CHO‐α1A cells, 5 h, read-out: cAMP accumulation Log EC50 (converted)) it was 1.17 µM; in assay [11] (CHO‐α1A cells, 2–4 min, ^a bi‐phasic: initial stimulatory part, ^b also active in parent CHO cells, read-out: ERK1/2‐phosphorylation Log EC50 (converted)) it was 0.1 µM; in assay [12] (CHO‐α1A cells, 10 μM forskolin, read-out: cAMP accumulation (in presence of forskolin) Log EC50 (converted)), 0.479 µM. For the same compound, the “Intracellular calcium release Log EC50” value in assay [7] (CHO‐α1D cells, log values given negative) is reported as “No response”. Further, the “ERK1/2‐phosphorylation % PDBu at 10 µM” value in assay [8] is 5.3 ± 4.6%. Also, in [9], the “cAMP accumulation (in presence of forskolin) % forskolin-stim cAMP” value is on record as “No response”. The “cAMP accumulation (in presence of forskolin) Log EC50” value in [9] was “No response”. In assay [12] (CHO‐α1A cells), the “cAMP accumulation (in presence of forskolin) Fold increase” value is 2.00 ± 0.10 fold.

For `CN[C@@H](C)[C@H](O)c1ccccc1` [Ephedrine], in assay [13], the “Affinity selectivity ratio α1B vs α1D” value is on record as above 3.7 fold and the Kd is 269 µM. Moreover, the “cAMP accumulation % forskolin” value in assay [3] is on record as “No response”. Moreover, the IC50 in assay [14] was above 1000 µM. In addition, in assay [4], the “ERK1/2-phosphorylation % PDBu” value is “No response” and the “ERK1/2-phosphorylation Log EC50” value is “No response”. Besides, in assay [5] (Cricetulus griseus, CHO, read-out: Intracellular calcium release % ionomycin), the Emax stood at 5.3 ± 1.6%. In [6], the EC50 was 3.16 µM, the “Intracellular calcium release % ionomycin” value came to 43.1 ± 1.6% and the “Log efficacy ratio KD /EC50” value came out at 1.43. Besides, the “Intracellular calcium release % Ionomycin at 100 µM” value in assay [7] is on record as 2.6 ± 1.3%. In addition, the “ERK1/2‐phosphorylation % PDBu at 100 µM” value in assay [8] worked out at 3.3 ± 2.1%. Moreover, in assay [9], the “cAMP accumulation (in presence of forskolin) % forskolin-stim cAMP” value is “No response” and the “cAMP accumulation (in presence of forskolin) Log EC50” value is given as “No response”. In assay [10], this compound had an EC50 of 117 µM. Further, the “cAMP accumulation % forskolin” value in assay [10] (CHO‐α1A cells) is 7.8 ± 1.3%. For the same compound, in [11], the EC50 was 7.59 µM and the “ERK1/2‐phosphorylation % PDBu” value came to 72.7 ± 6.5%. In assay [15], the “Affinity selectivity ratio α1A vs α1B” value is above 11.7 fold, the “Affinity selectivity ratio α1A vs α1D” value was found to be 3.2 fold and the Kd was 85.1 µM. The EC50 in assay [12] is 70.8 µM. The “cAMP accumulation (in presence of forskolin) Fold increase” value in assay [12] (CHO‐α1A cells) came out at 1.70 ± 0.10 fold.

Regarding `CC(Cc1ccc(O)cc1)NCC(O)c1cc(O)cc(O)c1` (stereo not drawn) [Fenoterol], the EC50 in [1] (setting [18]) was 0.537 µM; in assay [2] (setting [19]), 2.75 µM; in assay [6] (setting [18]) it was 0.309 µM; in assay [8], 3.98 µM; in [11] (setting [19]), 2.04 µM. In addition, the Kd in assay [13] (3H‐prazosin binding Log KD) was 44.7 µM; in assay [13] (Log KD α1D, ^3H‐prazosin whole cell binding), 44.7 µM; in [14] (Log KD α1B, ^3H‐prazosin whole cell binding), 123 µM; in assay [14] (Log KD, ^3H‐prazosin binding) it was 123 µM; in [15] (Log KD α1A, ^3H‐prazosin whole cell binding) it was 5.13 µM. Besides, in [3], the “cAMP accumulation % forskolin” value is recorded as “No response”. Moreover, in assay [4], the “ERK1/2-phosphorylation % PDBu” value is reported as “No response”. The “Intracellular calcium release % ionomycin” value in assay [5] was “No response”. Moreover, the “cAMP accumulation (in presence of forskolin) % forskolin-stim cAMP” value in assay [9] is recorded as “No response”. Also, the “cAMP (in presence of forskolin) Log EC50” value in [16] is on record as “No response”. Also, the “cAMP Log EC50” value in assay [17] was “No response”. The “cAMP accumulation Log EC50” value in assay [10] (CHO‐α1A cells, 5 h) was “No response”. Further, the “cAMP accumulation (in presence of forskolin) Log EC50” value in assay [12] (CHO‐α1A cells, 10 μM forskolin) was “No response”.

With `CCN(CC)C(=O)N[C@H]1C=C2c3cccc4[nH]cc(c34)C[C@H]2N(C)C1` [Lisuride], the “cAMP accumulation % forskolin” value in assay [3] was “No response”. Besides, in assay [4], the “ERK1/2‐phosphorylation response in parent CHO cells” value is listed as “stimulated ERK1/2‐phosphorylation responses”. Besides, the Emax in assay [4] (Cricetulus griseus, CHO, read-out: ERK1/2-phosphorylation % PDBu) came to 41 ± 6.4%. Also, the “Intracellular calcium release % ionomycin” value in assay [5] is on record as “No response”. Further, in assay [9], the “cAMP accumulation (in presence of forskolin) % forskolin-stim cAMP at 10μM” value was 85.2 ± 5.0%.

Consider `CC(N)C(O)c1ccc(O)c(O)c1` (stereo not drawn) [α-methylnorepinephrine], for which the “cAMP accumulation % forskolin” value in [3] was “No response”. In addition, in [4], the “ERK1/2-phosphorylation % PDBu” value is on record as “No response” and the “ERK1/2-phosphorylation Log EC50” value is “No response”. For the same compound, the “Intracellular calcium release % ionomycin” value in assay [5] is given as “No response”. In [9], the “cAMP accumulation (in presence of forskolin) % forskolin-stim cAMP” value is recorded as “No response” and the “cAMP accumulation (in presence of forskolin) Log EC50” value is reported as “No response”.
